Data taken from patent publication US20060069132A1, “Azolecarboxamide herbicides” (priority 2004, published 2006).

Tests used:
[1] = tested on: large crabgrass; assay: Test B pre-/postemergence herbicide test; type: in vivo, Digitaria sanguinalis; conditions: for Crabgrass, Large plant response rating: postemergence, scale 0 (no effect) to 100 (complete control)
In short: (§1)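 Greenhouse pot assay with simultaneous preemergence (treated seed) and postemergence (2–18 cm seedlings) applications of surfactant-containing, non-phytotoxic solvent formulations. Response scored visually 13–15 days later on a 0–100 scale, 100 meaning complete control.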

[2] = tested on: morningglory; assay: Test B pre-/postemergence herbicide test; type: in vivo, Ipomoea coccinea; conditions: for Morningglory plant response rating: postemergence, scale 0 (no effect) to 100 (complete control)
In short: (§2)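 Plants compared with untreated controls 13–15 days post-treatment and given a visual 0–100 injury score. Applications: preemergence to seeds; postemergence at 1- to 4-leaf (2–18 cm); paddy species flooded, 2-leaf stage. Vehicle non-phytotoxic, surfactant included.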

[3] = tested on: pigweed; assay: Test B pre-/postemergence herbicide test; type: in vivo, Amaranthus retroflexus; conditions: for Pigweed plant response rating: postemergence, scale 0 (no effect) to 100 (complete control)
In short: as §1

[4] = tested on: corn; assay: Test B pre-/postemergence herbicide test; type: in vivo, Zea mays; conditions: for Corn plant response rating: postemergence, scale 0 (no effect) to 100 (complete control)
In short: as §1

[5] = tested on: barnyardgrass; assay: Test B pre-/postemergence herbicide test; type: in vivo, Echinochloa crus-galli; conditions: for Barnyardgrass plant response rating: postemergence, scale 0 (no effect) to 100 (complete control)
In short: as §2

[6] = tested on: small flower umbrella sedge; assay: Test B flooded paddy test; type: in vivo, Cyperus difformis; conditions: 1000 g ai/ha, scale 0 to 100 (0 no effect, 100 complete control)
In short: (§3)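 Formulated test chemicals went onto postemergence plants measuring 2 to 18 cm, at one to four leaves. For the paddy assay, species had reached two leaves. Scoring took place 13–15 days later by eye, relative to untreated plants, using 0 for no effect up to 100 for full control.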

[7] = tested on: barnyardgrass; assay: Test B flooded paddy test; type: in vivo, Echinochloa crus-galli; conditions: 1000 g ai/ha, scale 0 to 100 (0 no effect, 100 complete control)
In short: as §3

[8] = tested on: rice; assay: Test B flooded paddy test; type: in vivo, Oryza sativa; conditions: 1000 g ai/ha, scale 0 to 100 (0 no effect, 100 complete control)
In short: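 Greenhouse test; postemergence application to plants at 1–4 leaves (2–18 cm); paddy species at 2 leaves; evaluated visually vs controls at 13–15 days; scale 0–100 (100 = complete control).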

[9] = tested on: wheat; assay: Test B postemergence herbicide test; type: in vivo, Triticum aestivum; set-up: key to Wheat plant response rating: 0 = no effect, 100 = complete control; conditions: postemergence, visual rating, scale 0 (no effect) to 100 (complete control)
In short: (§4)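 Visual ratings, 0 (no effect) to 100 (complete control), made versus controls after 13–15 d greenhouse. Paddy plants treated at 2-leaf stage; postemergence plants at 1- to 4-leaf stage, 2–18 cm tall.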

[10] = tested on: velvetleaf; assay: Test B pre-/postemergence herbicide test; type: in vivo, Abutilon theophrasti; conditions: for Velvetleaf plant response rating: postemergence, scale 0 (no effect) to 100 (complete control)
In short: as §1

[11] = tested on: rice; assay: Test B pre-/postemergence herbicide test; type: in vivo, Oryza sativa; conditions: 0 = no effect, 100 = complete control, preemergence
In short: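 Species tested were Echinochloa crus-galli, Ipomoea coccinea, Xanthium strumarium and Oryza sativa, treated both before emergence and at the 1- to 4-leaf stage; rice and barnyardgrass were also tested under flooding at 2 leaves. Greenhouse incubation lasted 13–15 days before visual 0–100 scoring.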

[12] = tested on: wild oat; assay: Test B postemergence herbicide test; type: in vivo, Avena fatua; conditions: postemergence, visual rating, scale 0 (no effect) to 100 (complete control)
In short: as §4

[13] = tested on: blackgrass; assay: Test B postemergence herbicide test; type: in vivo, Alopecurus myosuroides; conditions: postemergence, visual rating, scale 0 (no effect) to 100 (complete control)
In short: as §3

[14] = tested on: ducksalad; assay: Test B flooded paddy test; type: in vivo, Heteranthera limosa; conditions: 1000 g ai/ha, scale 0 to 100 (0 no effect, 100 complete control)
In short: as §3

[15] = tested on: lambsquarters; assay: Test B pre-/postemergence herbicide test; type: in vivo, Chenopodium album; conditions: for Lambsquarters plant response rating: postemergence, scale 0 (no effect) to 100 (complete control)
In short: as §1

[16] = tested on: giant foxtail; assay: Test B pre-/postemergence herbicide test; type: in vivo, Setaria faberi; conditions: for Foxtail, Giant plant response rating: postemergence, scale 0 (no effect) to 100 (complete control)
In short: as §1

[17] = tested on: cocklebur; assay: Test B pre-/postemergence herbicide test; type: in vivo, Xanthium strumarium; conditions: for Cocklebur plant response rating: postemergence, scale 0 (no effect) to 100 (complete control)
In short: as §2

[18] = tested on: Surinam grass; assay: Test B pre-/postemergence herbicide test; type: in vivo, Urochloa decumbens; conditions: for Surinam Grass plant response rating: postemergence, scale 0 (no effect) to 100 (complete control)
In short: as §1

[19] = 125 g ai/ha, 0 = no effect, 100 = complete control, preemergence
[20] = 500 g ai/ha, visual rating, 0 = no effect, 100 = complete control, preemergence

Compound: CCOC(=O)c1ccnc(NC(=O)c2cn(C(C)(C)C)nc2CC)c1 [Compound 238]
- Crabgrass, Large plant response rating (0 to 100 scale) [1, 19]: 0
- Plant response rating, Crabgrass, Large [1, 20]: 0
- Crabgrass, Large plant response rating ([1]; 125 g ai/ha, visual rating): 0
- Crabgrass, Large plant response rating ([1]; 500 g ai/ha, visual rating): 0
- Morningglory plant response rating (0 to 100 scale) [2, 19]: 0
- Plant response rating, Morningglory [2, 20]: 0
- Morningglory plant response rating ([2]; 125 g ai/ha, visual rating): 0
- Morningglory plant response rating ([2]; 500 g ai/ha, visual rating): 0
- Pigweed plant response rating (0 to 100 scale) [3, 19]: 0
- Plant response rating, Pigweed [3, 20]: 0
- Pigweed plant response rating ([3]; 125 g ai/ha, visual rating): 0
- Pigweed plant response rating ([3]; 500 g ai/ha, visual rating): 0
- Corn plant response rating (0 to 100 scale) [4, 19]: 0
- Plant response rating, Corn [4, 20]: 0
- Corn plant response rating ([4]; 125 g ai/ha, visual rating): 0
- Corn plant response rating ([4]; 500 g ai/ha, visual rating): 0
- Barnyardgrass plant response rating (0 to 100 scale) [5, 19]: 0
- Plant response rating, Barnyardgrass [5, 20]: 0
- Barnyardgrass plant response rating ([5]; 125 g ai/ha, visual rating): 0
- Barnyardgrass plant response rating ([5]; 500 g ai/ha, visual rating): 0
- Sedge, Umbrella plant response rating [6]: 80
- Barnyardgrass plant response rating [7]: 10
- Rice plant response rating [8]: 30
- Wheat plant response rating ([9]; 125 g ai/ha): 0
- Wheat plant response rating ([9]; 500 g ai/ha): 20
- Velvetleaf plant response rating (0 to 100 scale) [10, 19]: 0
- Plant response rating, Velvetleaf [10, 20]: 0
- Velvetleaf plant response rating ([10]; 125 g ai/ha, visual rating): 0
- Velvetleaf plant response rating ([10]; 500 g ai/ha, visual rating): 10
- Rice plant response rating (0 to 100 scale) ([11]; 125 g ai/ha): 0
- Plant response rating, Rice ([11]; 500 g ai/ha, visual rating): 0
- Oat, Wild plant response rating ([12]; 125 g ai/ha): 0
- Oat, Wild plant response rating ([12]; 500 g ai/ha): 10
- Blackgrass plant response rating ([13]; 125 g ai/ha): 0
- Blackgrass plant response rating ([13]; 500 g ai/ha): 10
- Ducksalad plant response rating [14]: 0
- Lambsquarters plant response rating (0 to 100 scale) [15, 19]: 0
- Plant response rating, Lambsquarters [15, 20]: 0
- Lambsquarters plant response rating ([15]; 125 g ai/ha, visual rating): 0
- Lambsquarters plant response rating ([15]; 500 g ai/ha, visual rating): 0
- Foxtail, Giant plant response rating (0 to 100 scale) [16, 19]: 0
- Plant response rating, Foxtail, Giant [16, 20]: 0
- Foxtail, Giant plant response rating ([16]; 125 g ai/ha, visual rating): 0
- Foxtail, Giant plant response rating ([16]; 500 g ai/ha, visual rating): 0
- Cocklebur plant response rating (0 to 100 scale) [17, 19]: 0
- Plant response rating, Cocklebur [17, 20]: 0
- Cocklebur plant response rating ([17]; 125 g ai/ha, visual rating): 0
- Cocklebur plant response rating ([17]; 500 g ai/ha, visual rating): 20
- Surinam Grass plant response rating (0 to 100 scale) [18, 19]: 0
- Plant response rating, Surinam Grass [18, 20]: 0
- Surinam Grass plant response rating ([18]; 125 g ai/ha, visual rating): 0
- Surinam Grass plant response rating ([18]; 500 g ai/ha, visual rating): 0
